Experimental data taken from US12606541B2, “PPARg modulators and methods of use” (Eisai R&D Management Co., Ltd., priority 2020, dated 2026).
Where two headings read alike, the source gives them in different places.

Key:
His6-TEV-PPARγ-(234-505) = target: T1, His6-TEV-PPARγ-(234-505) (Homo sapiens, UniProt P37231); experiment: TR-FRET Assay to Measure Co-R Peptide Recruitment to PPARγ; format: biochemical; conditions: Co-R peptide (SMRT-ID2) recruitment; top final concentration 20 μM; read-out: TR-FRET i-Ag; AC50
T1 construct: The His6-TEV-PPARγ-(234-505) protein for assay was expressed and purified; TEV cleavage site (N); made in house
T1 sequence (P37231 234-505): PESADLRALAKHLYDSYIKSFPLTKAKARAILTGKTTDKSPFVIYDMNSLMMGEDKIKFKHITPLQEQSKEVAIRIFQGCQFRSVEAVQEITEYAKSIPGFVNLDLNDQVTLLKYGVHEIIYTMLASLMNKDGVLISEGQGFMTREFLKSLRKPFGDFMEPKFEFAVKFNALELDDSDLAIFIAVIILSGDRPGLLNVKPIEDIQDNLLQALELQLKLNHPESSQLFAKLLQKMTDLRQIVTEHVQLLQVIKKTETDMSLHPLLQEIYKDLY
Procedure, shortened: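 His-tagged PPARγ (or controls) was preincubated with compound for 20 minutes at room temperature, then 5 nM anti-His terbium antibody and 200 nM FITC-labeled SMRT-ID2 corepressor peptide (final) were added for a further hour. TR-FRET signal was normalized to percent response using 500 nM T0070907 and DMSO controls.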

UM-UC-9 engineered cells = experiment: Cell proliferation / short-term viability assay, CellTiter-Glo 144 h; format: cell-based, human; conditions: read-out: CTGlo 144 h UMUC9.5, G150
Procedure, shortened: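 UM-UC-9 engineered assay-ready cells seeded at 500 cells/well in high-glucose DMEM/10% FBS, treated from dose-response plates, grown at 37° C, 5% CO2. CellTiter-Glo 2.0 luminescence read on day 7, with a day-0 pretreatment plate as T0 reference and DMSO wells as negative control.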

AC50 (His6-TEV-PPARγ-(234-505))	Structure (SMILES)	IC50 (UM-UC-9 engineered cells)	IC50 (UM-UC-9 engineered cells; Homo sapiens, UM-UC-9, 144 h)
2510 nM	COc1cc(-c2cc(C(=O)N3CC[C@H](C(=O)NC4CCN(CCF)C(C)(C)C4)CC34CC4)n[nH]2)c(F)cn1 (single isomer, unassigned) [Example 425-A]	> 10000 nM	
30.9 nM	COc1cc(-c2cc(C(=O)N3CC[C@H](C(=O)NC4CCC5(CC4)N([S+]([O-])C(C)(C)C)CC5(F)F)CC34CC4)n[nH]2)c(F)cn1 (stereo partly drawn) [Example 409, (7S)—N-(1-(tert-butylsulfinyl)-3,3-difluoro-1-azaspiro[3.5]nonan-7-yl)-4-(5-(5-fluoro-2-methoxypyridin-4-yl)-1H-pyrazole-3-carbonyl)-4-azaspiro[2.5]octane-7-carboxamide]		39.1 nM
26.7 nM	COc1cc(-c2cc(C(=O)N3CC[C@H](C(=O)NCc4nc(N5C[C@@H](C)N(C)[C@@H](C)C5)oc4C(F)(F)F)CC34CC4)n[nH]2)c(F)cn1 [Example 485, (S)-4-(5-(5-fluoro-2-methoxypyridin-4-yl)-N-pyrazole-3-carbonyl)-N-((5-(trifluoromethyl)-2-((3S,5R)-3,4,5-trimethylpiperazin-1-yl)oxazol-4-yl)methyl)-4-azaspiro[2.5]octane-7-carboxamide]		350 nM
17.2 nM	COc1cc(-c2cc(C(=O)N3CC[C@H](C(=O)NCC4CCNCC4(F)F)CC34CC4)n[nH]2)c(F)cn1 (single isomer, unassigned) [Example 511-A]	63.5 nM	
951 nM	COc1cc(-c2cc(C(=O)N3CC[C@H](C(=O)NCc4ncc(N5C[C@H]6C[C@@H]5CN6)cn4)CC34CC4)[nH]n2)c(F)cn1 (mixture of isomers) [Example 467, (S)—N-((5-((1R,4R)-2,5-diazabicyclo[2.2.1]heptan-2-yl)pyrimidin-2-yl)methyl)-4-(3-(5-fluoro-2-methoxypyridin-4-yl)-1H-pyrazole-5-carbonyl)-4-azaspiro[2.5]octane-7-carboxamide and (S)—N-((5-((1S,4S)-2,5-diazabicyclo[2.2.1]heptan-2-yl)pyrimidin-2-yl)methyl)-4-(3-(5-fluoro-2-methoxypyridin-4-yl)-1H-pyrazole-5-carbonyl)-4-azaspiro[2.5]octane-7-carboxamide]		> 10000 nM
571 nM	COc1cc(-c2cc(C(=O)N3CCC(C(=O)NC4COC(C)(C)C4)CC3)n[nH]2)c(Cl)cn1 (racemic) [Example 213, 1-(5-(5-chloro-2-methoxypyridin-4-yl)-1H-pyrazole-3-carbonyl)-N (5,5-dimethyltetrahydrofuran-3-yl)piperidine-4-carboxamide]		1640 nM
130 nM	COc1cc(-c2cc(C(=O)N3CC[C@H](C(=O)NC45CC(CO)(C4)OC5C)CC34CC4)n[nH]2)c(F)cn1 (single isomer, unassigned) [Example 518-A]	3130 nM	
447 nM	COc1cc(-c2cc(C(=O)N3CCC(C(=O)NC4(C)CCC(C)CC4)CC3)n[nH]2)c(Cl)cn1 (mixture of isomers) [Example 163, 1-(5-(5-chloro-2-methoxypyridin-4-yl)-1H-pyrazole-3-carbonyl)-N (1,4-dimethylcyclohexyl)piperidine-4-carboxamide]		747 nM
25.6 nM	CCO[C@]1(C(F)(F)F)CC[C@H](NC(=O)[C@H]2CCN(C(=O)c3cc(-c4cc(C)ncn4)[nH]n3)C3(CC3)C2)CC1 (single isomer, unassigned) [Example 308-D]		192 nM
304 nM	COc1cc(-c2cc(C(=O)N3CC[C@@H](C(=O)N[C@H]4CC[C@@](O)(C(F)(F)F)CC4)CC34CC4)n[nH]2)c(Cl)cn1 (single isomer, unassigned) [Example 286-A]		460 nM
376 nM	COc1cc(-c2cc(C(=O)N3CCC(C(=O)NCc4ccc(C)cn4)CC3)n[nH]2)c(Cl)cn1 [Example 176, 1-(5-(5-chloro-2-methoxypyridin-4-yl)-1H-pyrazole-3-carbonyl)-N-((5-methylpyridin-2-yl)methyl)piperidine-4-carboxamide]		1840 nM
67.9 nM	COc1cnc(CNC(=O)[C@H]2CCN(C(=O)c3cc(-c4cc(OC)ncc4F)[nH]n3)C3(CC3)C2)nc1 [Example 455, (S)-4-(5-(5-fluoro-2-methoxypyridin-4-yl)-1H-pyrazole-3-carbonyl)-N-((5-methoxypyrimidin-2-yl)methyl)-4-azaspiro[2.5]octane-7-carboxamide]		213 nM
187 nM	COc1cc(-c2cc(C(=O)N3CC[C@H](C(=O)NC4CCC5(CCCN5C5COC5)CC4)CC34CC4)n[nH]2)c(F)cn1 (stereo partly drawn) [Example 349, (S)-4-(5-(5-fluoro-2-methoxypyridin-4-yl)-1H-pyrazole-3-carbonyl)-N-(1-(oxetan-3-yl)-1-azaspiro[4.5]decan-8-yl)-4-azaspiro[2.5]octane-7-carboxamide]		836 nM
917 nM	COc1cc(-c2cc(C(=O)N3CC[C@H](C(=O)NC4CCN(CCF)C(C)(C)C4)CC34CC4)n[nH]2)c(F)cn1 (single isomer, unassigned) [Example 425-B]	> 10000 nM	
501 nM	COc1cc(-c2cc(C(=O)N3CCC(C(=O)NCc4ncc(Cl)cn4)CC3)n[nH]2)c(Cl)cn1 [Example 138, 1-(5-(5-chloro-2-methoxypyridin-4-yl)-1H-pyrazole-3-carbonyl)-N-((5-chloropyrimidin-2-yl)methyl)piperidine-4-carboxamide]		1470 nM
608 nM	COc1cc(-c2cc(C(=O)N3CCC(C(=O)NCc4ccc(OC(F)(F)F)cc4)CC3)n[nH]2)c(Cl)cn1 [Example 164, 1-(5-(5-chloro-2-methoxypyridin-4-yl)-1H-pyrazole-3-carbonyl)-N-(4-(trifluoromethoxy)benzyl)piperidine-4-carboxamide]		1010 nM
8 nM	COc1cc(-c2cc(C(=O)N3CC[C@H](C(=O)NC4CCN(CC(F)(F)CO)C4)CC34CC4)n[nH]2)c(F)cn1 (single isomer, unassigned) [Example 459-A]	275 nM	
142 nM	COc1cc(-c2cc(C(=O)N3CC[C@H](C(=O)NC4CCN(c5cnnc(C)c5)C4)CC34CC4)n[nH]2)c(F)cn1 (single isomer, unassigned) [Example 452-B]	> 10000 nM	
554 nM	COc1cc(-c2cc(C(=O)N3CCC(C(=O)NC4CCCc5nc(C)ncc54)CC3)n[nH]2)c(Cl)cn1 (racemic) [Example 224, 1-(5-(5-chloro-2-methoxypyridin-4-yl)-1H-pyrazole-3-carbonyl)-N-(2-methyl-5,6,7,8-tetrahydroquinazolin-5-yl)piperidine-4-carboxamide]		5180 nM

Structure (SMILES)	AC50 (His6-TEV-PPARγ-(234-505))	IC50 (UM-UC-9 engineered cells)	IC50 (UM-UC-9 engineered cells; Homo sapiens, UM-UC-9, 144 h)
COc1cc(-c2cc(C(=O)N3CCC(NC(=O)C4CCC(O)(C(F)(F)F)CC4)CC34CC4)n[nH]2)c(F)cn1 (single isomer, unassigned) [Example 347-D]	≥ 20000 nM	> 10000 nM	
COc1cc(-c2cc(C(=O)N3[C@@H]4CC[C@H]3C[C@H](C(=O)NC3CCC(C(F)(F)F)OC3)C4)n[nH]2)c(F)cn1 (single isomer, unassigned) [Example 280-A]	895 nM		5800 nM
Cc1cc(-c2cc(C(=O)N3[C@@H]4CC[C@H]3C[C@H](C(=O)NCc3ccc5[nH]nc(F)c5c3)C4)n[nH]2)c(F)cn1 [Example 284, (1R,3s,5S)—N-((3-fluoro-1H-indazol-5-yl)methyl)-8-(5-(5-fluoro-2-methylpyridin-4-yl)-1H-pyrazole-3-carbonyl)-8-azabicyclo[3.2.1]octane-3-carboxamide]	2.3 nM		12.1 nM
COc1cc(-c2cc(C(=O)N3CCC(C(=O)NC4CCCn5c(C)nnc54)CC34CC4)n[nH]2)c(F)cn1 (mixture of isomers) [Example 492, (S)-4-(5-(5-fluoro-2-methoxypyridin-4-yl)-1H-pyrazole-3-carbonyl)-N—((S)-3-methyl-5,6,7,8-tetrahydro-[1,2,4]triazolo[4,3-a]pyridin-8-yl)-4-azaspiro[2.5]octane-7-carboxamide and (S)-4-(5-(5-fluoro-2-methoxypyridin-4-yl)-1H-pyrazole-3-carbonyl)-N—((R)-3-methyl-5,6,7,8-tetrahydro-[1,2,4]triazolo[4,3-a]pyridin-8-yl)-4-azaspiro[2.5]octane-7-carboxamide]	454 nM	> 10000 nM	
CC(O)c1cc(-c2cc(C(=O)N3CCC(C(=O)NCc4ncc(F)cc4Cl)CC34CC4)n[nH]2)c(F)cn1 (mixture of isomers) [Example 478]	38.8 nM	415 nM	
COc1cc(-c2cc(C(=O)N3CCC(C(=O)NC4CC5COCC(C4)N5C)CC34CC4)n[nH]2)c(F)cn1 (centres unmarked) [Example 419-A]	359 nM		854 nM
